Legend:
Type in all cases: in vivo
[1] = system: macrophage/microglial recruitment; test: IBA1 immunofluorescence count of activated macrophage/microglial cells in laser burns on RPE-choroid flatmounts; conditions: rat, day 3 after laser, subcutaneous spironolactone; P<0.05
Protocol: (§1) After anesthesia and dilation of the pupils, coverslips were positioned on the cornea as a contact glass. For rats, six to eight burns were performed 2 to 3-disk diameters away from the papillae with an Argon laser (532 nm) mounted on a slit lamp (170 mW, 0.1 second and 50 μm). For mice, four laser burns were induced at the 3, 6, 9 and 12 o'clock positions around the optic disc (250 mW, 0.05 second and 50 μm). The presence of a bubble witnessed the rupture of Bruch's membrane and confirmed the success of the laser impact.
Treatments were introduced only in rat model of CNV. After laser photocoagulation, rats were divided into 6 groups: 1) non-treated; 2) daily subcutaneous injection of spironolactone diluted in oliver oil and DMSO (25 mg/kg/day) until sacrifice; 3) daily subcutaneous injection of vehicle (oliver oil and DMSO) until sacrifice; 4) intravitreous injection (IVT) of anti-rat VEGF (1.5 μg/μl, 5 μl, RnD system, Lille, France) only at day 0 (Couturier A et al. Anti-vascular endothelial growth factor acts on retinal microglia/macrophage activation in a rat model of ocular inflammation. […]
Three days after laser induction (peak of macrophage infiltration), rat RPE-choroidal flatmounts were also prepared for immunofluorescence. […] IBAI positive macrophage/microglial cells were counted on stained laser lesions. The average cell number/per impact/rat eye was calculated.

[2] = system: Transcript levels of MCP1, IL6, IL1β, TNFα, VEGF-A and PIGF; test: Quantitative PCR of rat neuroretina and RPE-choroid complex 3 days after laser; conditions: day 3, subcutaneous spironolactone
Protocol: as §1
Treatments were introduced only in rat model of CNV. After laser photocoagulation, rats were divided into 6 groups: 1) non-treated; 2) daily subcutaneous injection of spironolactone diluted in oliver oil and DMSO (25 mg/kg/day) until sacrifice; 3) daily subcutaneous injection of vehicle (oliver oil and DMSO) until sacrifice; 4) intravitreous injection (IVT) of anti-rat VEGF (1.5 μg/μl, 5 μl, RnD system, Lille, France) only at day 0 (Couturier A et al. Anti-vascular endothelial growth factor acts on retinal microglia/macrophage activation in a rat model of ocular inflammation. Mol Vis 2014;20:908-20); 5) IVT of spironolactone-loaded PLGA MPs only at day 0 (2.2 μg/μl, 5 μl, obtained from team of Pr R. Herrero-Vanrell, Complutense University of Madrid). Considering the ex vivo release profile of Spi-MPs, the daily dose of spironolactone released in the vitreous is estimated at 18 μM; 6) IVT of blank PLGA MPs (5 μl) only at day 0.
Three days after laser induction, rat neuroretinas and RPE-choroid-sclera complexes were carefully dissected from enulcated eyes and snap-frozen in liquid nitrogen and stored at −80° C. until use. Total RNA was isolated from tissues using RNeasy Plus Mini Kit (Qiagen, Courtaboeuf, France) according to the manufacturer's instructions. First-strand complementary DNA was synthesized from total mRNA using random primers (Life Technologies, Cergy Pontoise, France) and SuperScript II reverse transcriptase (Life Technologies). Transcript levels of MR, MCP1, IL6, IL1β, TNFα, VEGF-A and PIGF were analyzed by quantitative real-time PCR performed in 7500 Real-Time PCR System (Applied Biosystems, Foster City, CA, USA) with either SYBR Green or TaqMan detection.

[3] = system: choroidal neovascularisation (CNV) induced by laser in rat eyes; test: Fluorescein angiography grading of vascular leakage in rat model of laser-induced CNV; conditions: 14 days after laser, versus laser control, spironolactone subcutaneous 25 mg/kg/day, anti-VEGF intravitreous at day 0
Protocol: (§2) All experiments were performed in accordance with the European Communities Council Directive 86/609/EEC and approved by local ethical committees (Ce5/2012/113). Six to eight-week old male Brown Norway rats from Janvier breeding Center (Le Genest-Saint-Isle, France) were used to create rat model of CNV. Vascular endothelial cell-specific MR knock-out mice (EC-MR-KO) and monocyte/macrophage-specific MR knock-out mice (MC-MR-KO) were generated in C57BL/6 genetic background mice and were obtained from team of Dr F. Jaisser (UMRS 1138, team 1). EC-MR-KO mice were created by mating transgenic mice expressing Cre recombinase in endothelial cells with mice harbouring MR-floxed alleles (Berger S et al. Loss of limbic mineralocorticoid receptor impairs behavioural plasticity. PNAS USA 2006). MC-MR-KO mice were obtained by mating mice expressing Cre recombinase in monocytes/macrophages (Clausen BE et al. Conditional gene targeting in macrophages and granulocytes using LysMcre mice. Trangenic Research 1999) with mice harbouring MR-floxed alleles. Animals were kept in pathogen-free conditions with food, water and litter and housed in a 12-hour light/12-hour dark cycle. […]
FA was performed 14 days (in rats) or 10 days (in mice) after laser induction. […] Early and late phase angiograms were recorded 1-3 and 5-7 min respectively after fluorescein injection. […]

[4] = system: choroidal neovascularisation (CNV) induced by laser in rat eyes; test: CNV volume quantification on RPE-choroid flatmounts (FITC-GSL I-Isolectin B4) in rat laser-induced CNV
Protocol: as §2, with “alleles.” for “alleles. Animals were kept in pathogen-free conditions with food, water and litter and housed in a 12-hour light/12-hour dark cycle.”
The deepest focal plane in which the surrounding choroidal vascular network connecting to the lesion could be identified was judged to be the floor of the CNV lesion. The area of CNV-related fluorescence on each horizontal section was measured using ImageJ software. […]

[5] = RPE-choroid complex and neuroretina

CC(=O)S[C@@H]1CC2=CC(=O)CC[C@]2(C)[C@H]2CC[C@@]3(C)[C@@H](CC[C@@]34CCC(=O)O4)[C@H]12 [spironolactone, 17-hydroxy-7α-mercapto-3-oxo-17α-pregn-4-ene-21-carboxylic acid γ-lactone acetate]
activated IBA1 positive macrophage/microglia in laser burns versus laser control [1]: significant fewer
expression of PIGF at RNA level [2, 5]: not regulated
expression of VEGF-A at RNA level [2, 5]: not regulated
laser-induced gene expression of IL1β ([2]; RPE-choroid complex): down-regulates
laser-induced gene expression of IL6 ([2]; RPE-choroid complex): down-regulates
laser-induced gene expression of MCP1 ([2]; RPE-choroid complex): down-regulates
laser-induced gene expression of TNFα ([2]; RPE-choroid complex): down-regulates
laser-induced gene expression of IL1β ([2]; neuroretina): down-regulates
laser-induced gene expression of MCP1 ([2]; neuroretina): down-regulates
laser-induced gene expression of TNFα ([2]; neuroretina): down-regulates
decrease in angiographic score (grading of vascular leakage on FA) [3]: −45%
CNV volume compared to laser control ([4]; RPE/choroid flatmounts 16 days after laser, spironolactone subcutaneous, anti-VEGF intravitreous, P<0.01): significant decrease
CNV development ([4]; systemic administration of spironolactone): limits the CNV development

From US20250025480A1, “METHODS AND PHARMACEUTICAL COMPOSITIONS FOR THE TREATMENT OF CHOROIDAL NEOVASCULARISATION” (INSERM (INSTITUT NATIONAL DE LA SANTE ET DE LA RECHERCHE …, priority 2015, published 2025)
